# Test results taken from article PMC3521580 (Journal of medicinal chemistry, 2011).
# Where two headings read alike, the source gives them in different places. Non-standard residues stand in square brackets, D forms with d. Residues, ends and D or L forms follow the SMILES beside them. *: point of attachment. X1 = CC(=O)NCCCC(CCCNC(C)=O)(NC(=O)CNC(=O)Cn1cc(CCC(=O)*)nn1)C(=O)NCCC(N)=O
# Key:
# human MC4R [1] = target: T1, human MC4R (Homo sapiens, UniProt P32245); experiment: Time resolved fluorescence competition binding assay against Eu-NDP-α-MSH; conditions: for Relative potency to Ac-MSH(4): Table 2
# human MC4R [2] = target: T1, human MC4R; experiment: cAMP biological response chemiluminescent immunoassay in Hek293/hMC4R cells; assay type: cell-based; conditions: hMC4R cells, result in words
# T1 sequence (P32245 whole entry): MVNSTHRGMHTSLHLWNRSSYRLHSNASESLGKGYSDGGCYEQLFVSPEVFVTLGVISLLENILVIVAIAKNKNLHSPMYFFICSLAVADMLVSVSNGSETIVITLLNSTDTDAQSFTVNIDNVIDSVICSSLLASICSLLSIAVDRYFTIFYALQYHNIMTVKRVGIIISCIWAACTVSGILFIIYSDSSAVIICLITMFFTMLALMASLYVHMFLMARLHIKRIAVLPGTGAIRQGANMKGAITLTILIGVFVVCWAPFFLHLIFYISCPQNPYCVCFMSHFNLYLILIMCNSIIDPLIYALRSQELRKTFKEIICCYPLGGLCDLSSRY
Structure (SMILES),IC50 (human MC4R [1]),"IC50 (human MC4R [1]; IC50, MC4R binding affinity as quoted in the text)","Relative potency to Ac-MSH(4) (human MC4R [1]; ratio of IC50 values, fold)","cAMP production, agonist activity at MC4R (human MC4R [2])","Relative potency to NB397 (human MC4R [1]; Table 3, ratio of IC50 values, fold)"
CC(=O)N[C@@H](CCCCNC(=O)CCc1cn(CC(=O)NCCCC(CCCNC(=O)Cn2cc(CCC(=O)NCCCC[C@H](NC(C)=O)C(=O)N[C@@H](Cc3c[nH]cn3)C(=O)N[C@H](Cc3ccccc3)C(=O)N[C@@H](CCCNC(=N)N)C(=O)N[C@@H](Cc3c[nH]c4ccccc34)C(N)=O)nn2)(NC(=O)CNC(=O)Cn2cc(CCC(=O)NCCCC[C@H](NC(C)=O)C(=O)N[C@@H](Cc3c[nH]cn3)C(=O)N[C@H](Cc3ccccc3)C(=O)N[C@@H](CCCNC(=N)N)C(=O)N[C@@H](Cc3c[nH]c4ccccc34)C(N)=O)nn2)C(=O)NCCC(N)=O)nn1)C(=O)N[C@@H](Cc1c[nH]cn1)C(=O)N[C@H](Cc1ccccc1)C(=O)N[C@@H](CCCNC(=N)N)C(=O)N[C@@H](Cc1c[nH]c2ccccc12)C(N)=O (stereo partly shown) [NB297],71 ± 5.3 nM,~72 nM,64,,
CC(=O)N[C@@H](CCCCNC(=O)CCc1cn(CC(=O)NCC(=O)N2CCC[C@H]2C(=O)NCC(=O)NCCCC(CCCNC(=O)CNC(=O)[C@@H]2CCCN2C(=O)CNC(=O)Cn2cc(CCC(=O)NCCCC[C@H](NC(C)=O)C(=O)N[C@@H](Cc3c[nH]cn3)C(=O)N[C@H](Cc3ccccc3)C(=O)N[C@@H](CCCNC(=N)N)C(=O)N[C@@H](Cc3c[nH]c4ccccc34)C(N)=O)nn2)(NC(=O)CNC(=O)CNC(=O)[C@@H]2CCCN2C(=O)CNC(=O)Cn2cc(CCC(=O)NCCCC[C@H](NC(C)=O)C(=O)N[C@@H](Cc3c[nH]cn3)C(=O)N[C@H](Cc3ccccc3)C(=O)N[C@@H](CCCNC(=N)N)C(=O)N[C@@H](Cc3c[nH]c4ccccc34)C(N)=O)nn2)C(=O)NCCC(N)=O)nn1)C(=O)N[C@@H](Cc1c[nH]cn1)C(=O)N[C@H](Cc1ccccc1)C(=O)N[C@@H](CCCNC(=N)N)C(=O)N[C@@H](Cc1c[nH]c2ccccc12)C(N)=O (stereo partly shown) [NB298],220 ± 59 nM,,21,,
CC(=O)N[C@@H](CCCCNC(=O)CCc1cn(CC(=O)NCC(=O)N2CCC[C@H]2C(=O)NCC(=O)N2CCC[C@H]2C(=O)NCC(=O)NCCCC(CCCNC(=O)CNC(=O)[C@@H]2CCCN2C(=O)CNC(=O)[C@@H]2CCCN2C(=O)CNC(=O)Cn2cc(CCC(=O)NCCCC[C@H](NC(C)=O)C(=O)N[C@@H](Cc3c[nH]cn3)C(=O)N[C@H](Cc3ccccc3)C(=O)N[C@@H](CCCNC(=N)N)C(=O)N[C@@H](Cc3c[nH]c4ccccc34)C(N)=O)nn2)(NC(=O)CNC(=O)CNC(=O)[C@@H]2CCCN2C(=O)CNC(=O)[C@@H]2CCCN2C(=O)CNC(=O)Cn2cc(CCC(=O)NCCCC[C@H](NC(C)=O)C(=O)N[C@@H](Cc3c[nH]cn3)C(=O)N[C@H](Cc3ccccc3)C(=O)N[C@@H](CCCNC(=N)N)C(=O)N[C@@H](Cc3c[nH]c4ccccc34)C(N)=O)nn2)C(=O)NCCC(N)=O)nn1)C(=O)N[C@@H](Cc1c[nH]cn1)C(=O)N[C@H](Cc1ccccc1)C(=O)N[C@@H](CCCNC(=N)N)C(=O)N[C@@H](Cc1c[nH]c2ccccc12)C(N)=O (stereo partly shown) [NB299],410 ± 70 nM,,11,,
CC(=O)N[C@@H](CCCCNC(=O)CCc1cn(CC(=O)NCC(=O)N2CCC[C@H]2C(=O)NCC(=O)N2CCC[C@H]2C(=O)NCC(=O)N2CCC[C@H]2C(=O)NCC(=O)NCCCC(CCCNC(=O)CNC(=O)[C@@H]2CCCN2C(=O)CNC(=O)[C@@H]2CCCN2C(=O)CNC(=O)[C@@H]2CCCN2C(=O)CNC(=O)Cn2cc(CCC(=O)NCCCC[C@H](NC(C)=O)C(=O)N[C@@H](Cc3c[nH]cn3)C(=O)N[C@H](Cc3ccccc3)C(=O)N[C@@H](CCCNC(=N)N)C(=O)N[C@@H](Cc3c[nH]c4ccccc34)C(N)=O)nn2)(NC(=O)CNC(=O)CNC(=O)[C@@H]2CCCN2C(=O)CNC(=O)[C@@H]2CCCN2C(=O)CNC(=O)[C@@H]2CCCN2C(=O)CNC(=O)Cn2cc(CCC(=O)NCCCC[C@H](NC(C)=O)C(=O)N[C@@H](Cc3c[nH]cn3)C(=O)N[C@H](Cc3ccccc3)C(=O)N[C@@H](CCCNC(=N)N)C(=O)N[C@@H](Cc3c[nH]c4ccccc34)C(N)=O)nn2)C(=O)NCCC(N)=O)nn1)C(=O)N[C@@H](Cc1c[nH]cn1)C(=O)N[C@H](Cc1ccccc1)C(=O)N[C@@H](CCCNC(=N)N)C(=O)N[C@@H](Cc1c[nH]c2ccccc12)C(N)=O (stereo partly shown) [NB300],620 ± 51 nM,,7,,
CC(=O)N[C@@H](CCCCNC(=O)CCc1cn(CC(=O)NCCC(=O)NCCCC(CCCNC(=O)CCNC(=O)Cn2cc(CCC(=O)NCCCC[C@H](NC(C)=O)C(=O)N[C@@H](Cc3c[nH]cn3)C(=O)N[C@H](Cc3ccccc3)C(=O)N[C@@H](CCCNC(=N)N)C(=O)N[C@@H](Cc3c[nH]c4ccccc34)C(N)=O)nn2)(NC(=O)CNC(=O)CCNC(=O)Cn2cc(CCC(=O)NCCCC[C@H](NC(C)=O)C(=O)N[C@@H](Cc3c[nH]cn3)C(=O)N[C@H](Cc3ccccc3)C(=O)N[C@@H](CCCNC(=N)N)C(=O)N[C@@H](Cc3c[nH]c4ccccc34)C(N)=O)nn2)C(=O)NCCC(N)=O)nn1)C(=O)N[C@@H](Cc1c[nH]cn1)C(=O)N[C@H](Cc1ccccc1)C(=O)N[C@@H](CCCNC(=N)N)C(=O)N[C@@H](Cc1c[nH]c2ccccc12)C(N)=O (stereo partly shown) [NB301],88 ± 12 nM,,52,,
CC(=O)N[C@@H](CCCCNC(=O)CCc1cn(CC(=O)NCCC(=O)NCCC(=O)NCCCC(CCCNC(=O)CCNC(=O)CCNC(=O)Cn2cc(CCC(=O)NCCCC[C@H](NC(C)=O)C(=O)N[C@@H](Cc3c[nH]cn3)C(=O)N[C@H](Cc3ccccc3)C(=O)N[C@@H](CCCNC(=N)N)C(=O)N[C@@H](Cc3c[nH]c4ccccc34)C(N)=O)nn2)(NC(=O)CNC(=O)CCNC(=O)CCNC(=O)Cn2cc(CCC(=O)NCCCC[C@H](NC(C)=O)C(=O)N[C@@H](Cc3c[nH]cn3)C(=O)N[C@H](Cc3ccccc3)C(=O)N[C@@H](CCCNC(=N)N)C(=O)N[C@@H](Cc3c[nH]c4ccccc34)C(N)=O)nn2)C(=O)NCCC(N)=O)nn1)C(=O)N[C@@H](Cc1c[nH]cn1)C(=O)N[C@H](Cc1ccccc1)C(=O)N[C@@H](CCCNC(=N)N)C(=O)N[C@@H](Cc1c[nH]c2ccccc12)C(N)=O (stereo partly shown) [NB302],120 ± 10 nM,,38,,
CC(=O)NCCCC(CCCNC(C)=O)(NC(=O)CNC(=O)Cn1cc(CCC(=O)NCCCC[C@H](NC(C)=O)C(=O)N[C@@H](Cc2c[nH]cn2)C(=O)N[C@H](Cc2ccccc2)C(=O)N[C@@H](CCCNC(=N)N)C(=O)N[C@@H](Cc2c[nH]c3ccccc23)C(N)=O)nn1)C(=O)NCCC(N)=O [NB397] (Ac-K(X1)H[dF]RW-NH2; N-terminus assumed),,,,agonists,
CC(=O)NCC(=O)NC(CCCNC(=O)Cn1cc(CCC(=O)NCCCC[C@H](NC(C)=O)C(=O)N[C@@H](Cc2c[nH]cn2)C(=O)N[C@H](Cc2ccccc2)C(=O)N[C@@H](CCCNC(=N)N)C(=O)N[C@@H](Cc2c[nH]c3ccccc23)C(N)=O)nn1)(CCCNC(=O)Cn1cc(CCC(=O)NCCCC[C@H](NC(C)=O)C(=O)N[C@@H](Cc2c[nH]cn2)C(=O)N[C@H](Cc2ccccc2)C(=O)N[C@@H](CCCNC(=N)N)C(=O)N[C@@H](Cc2c[nH]c3ccccc23)C(N)=O)nn1)C(=O)NCCC(N)=O (stereo partly shown) [NB399],,,,agonists,16
